Key:
Test in all cases: relative viability (nuclei count vs DMSO), 5 days (fraction); higher = more cells survive
Linsitinib + Pictilisib = compound: C[C@]1(O)C[C@@H](c2nc(-c3ccc4ccc(-c5ccccc5)nc4c3)c3c(N)nccn32)C1 [Linsitinib] + CS(=O)(=O)N1CCN(Cc2cc3nc(-c4cccc5[nH]ncc45)nc(N4CCOCC4)c3s2)CC1 [Pictilisib] (partner 1 µM)
Method in brief: (§1)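 Five library-drug doses in √10 steps were combined with a fixed anchor-drug dose, or a single drug was given alone, by pin tool to lung cancer cell lines in 1536-well plates the day after seeding. Nuclei were stained and counted after 5 days. Relative viability is the nuclei count in treated wells over that in vehicle wells, taken as the median of duplicate plates.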

Ispinesib + Palbociclib = compound: Cc1ccc(C(=O)N(CCCN)[C@@H](c2nc3cc(Cl)ccc3c(=O)n2Cc2ccccc2)C(C)C)cc1 [Ispinesib] + CC(=O)c1c(C)c2cnc(Nc3ccc(N4CCNCC4)cn3)nc2n(C2CCCC2)c1=O [Palbociclib] (partner 0.5 µM)
Method in brief: as §1

Ispinesib + Dasatinib = compound: Cc1ccc(C(=O)N(CCCN)[C@@H](c2nc3cc(Cl)ccc3c(=O)n2Cc2ccccc2)C(C)C)cc1 [Ispinesib] + Cc1nc(Nc2ncc(C(=O)Nc3c(C)cccc3Cl)s2)cc(N2CCN(CCO)CC2)n1 [Dasatinib] (partner 0.075 µM)
Method in brief: as §1

Ispinesib + Olaparib = compound: Cc1ccc(C(=O)N(CCCN)[C@@H](c2nc3cc(Cl)ccc3c(=O)n2Cc2ccccc2)C(C)C)cc1 [Ispinesib] + O=C(c1cc(Cc2n[nH]c(=O)c3ccccc23)ccc1F)N1CCN(C(=O)C2CC2)CC1 [Olaparib] (partner 8 µM)
Method in brief: as §1

Row | Cell Line | relative viability (Linsitinib + Pictilisib; first compound 0.01 µM) | relative viability (Linsitinib + Pictilisib; first compound 0.03162 µM) | relative viability (Linsitinib + Pictilisib; first compound 0.1 µM) | relative viability (Linsitinib + Pictilisib; first compound 0.3162 µM) | relative viability (Linsitinib + Pictilisib; first compound 1 µM) | relative viability (Ispinesib + Palbociclib; first compound 0.001 µM) | relative viability (Ispinesib + Palbociclib; first compound 0.003162 µM) | relative viability (Ispinesib + Palbociclib; first compound 0.01 µM) | relative viability (Ispinesib + Palbociclib; first compound 0.03162 µM) | relative viability (Ispinesib + Palbociclib; first compound 0.1 µM) | relative viability (Ispinesib + Dasatinib; first compound 0.001 µM) | relative viability (Ispinesib + Dasatinib; first compound 0.003162 µM) | relative viability (Ispinesib + Dasatinib; first compound 0.01 µM) | relative viability (Ispinesib + Dasatinib; first compound 0.03162 µM) | relative viability (Ispinesib + Dasatinib; first compound 0.1 µM) | relative viability (Ispinesib + Olaparib; first compound 0.001 µM) | relative viability (Ispinesib + Olaparib; first compound 0.003162 µM) | relative viability (Ispinesib + Olaparib; first compound 0.01 µM) | relative viability (Ispinesib + Olaparib; first compound 0.03162 µM) | relative viability (Ispinesib + Olaparib; first compound 0.1 µM)
1 | LK-2 | 0.698 | 0.529 | 0.553 | 0.494 | 0.851 | 0.687 | 0.821 | 0.824 | 0.743 | 0.188 | 0.227 | 0.331 | 0.299 | 0.26 | 0.199 | 0.795 | 0.814 | 0.698 | 0.632 | 0.329
2 | LOU-NH91 | 0.49 | 0.515 | 0.503 | 0.523 | 0.457 | 0.535 | 0.548 | 0.513 | 0.52 | 0.336 | 0.591 | 0.608 | 0.592 | 0.519 | 0.206 | 0.929 | 0.915 | 0.969 | 0.906 | 0.369
3 | LU99A | 0.291 | 0.347 | 0.315 | 0.204 | 0.242 | 0.398 | 0.44 | 0.481 | 0.315 | 0.285 | 0.676 | 0.519 | 0.558 | 0.363 | 0.203 | 0.249 | 0.264 | 0.235 | 0.234 | 0.245
4 | NCI-H522 |  |  |  |  |  | 1 | 0.965 | 1.01 | 0.903 | 1.02 | 0.723 | 1.11 | 1.05 | 0.634 | 0.401 | 0.634 | 0.585 | 0.779 | 0.571 | 0.555
5 | NCI-H596 | 0.248 | 0.393 | 0.382 | 0.343 | 0.317 |  |  |  |  |  | 0.573 | 0.589 | 0.62 | 0.641 | 0.334 | 0.652 | 0.629 | 0.638 | 0.671 | 0.571
6 | NCI-H1299 | 0.864 | 0.794 | 0.766 | 0.796 | 0.648 |  |  |  |  |  |  |  |  |  |  | 1.02 | 0.993 | 1.07 | 0.986 | 0.478
7 | NCI-H1563 | 0.665 | 0.668 | 0.647 | 0.657 | 0.545 |  |  |  |  |  | 0.395 | 0.483 | 0.469 | 0.417 | 0.378 |  |  |  |  | 
8 | NCI-H1623 |  |  |  |  |  |  |  |  |  |  | 0.63 | 0.63 | 0.523 | 0.461 | 0.468 |  |  |  |  | 
9 | NCI-H1648 |  |  |  |  |  | 0.285 | 0.297 | 0.248 | 0.291 | 0.256 |  |  |  |  |  | 1.04 | 1.07 | 0.751 | 0.889 | 0.0854
10 | NCI-H1703 | 0.29 |  | 0.216 | 0.28 | 0.234 |  |  |  |  |  |  |  |  |  |  | 0.601 | 0.312 | 0.246 | 0.127 | 0.105
11 | NCI-H2342 |  |  |  |  |  | 0.571 | 0.539 | 0.556 | 0.541 | 0.522 | 0.284 | 0.305 | 0.328 | 0.284 | 0.27 | 0.413 | 0.423 | 0.423 | 0.453 | 0.328
12 | SW 900 |  |  |  |  |  | 0.566 | 0.638 | 0.609 | 0.624 | 0.321 | 0.561 | 0.654 | 0.782 | 0.246 | 0.196 | 0.858 | 0.889 | 0.914 | 0.827 | 0.418

From the supplement of paper PMC10307832
